Test results taken from patent US20100222293A1, “MODULATION OF SPERM MOTILITY” (priority 2007, published 2010).

Tested on: sperm from asthenozoospermic subjects
Experiment: Sperm motility parameters after incubation with extracellular ATP (automated cell motility analyzer)
Type: cell-based, human
Details: 2.5 mM ATP, 60 minutes
Procedure: Semen samples were collected after 3 days of sexual abstinence in sterile containers. After liquefaction at room temperature for 30 minutes, standard seminal parameters were examined according to the WHO laboratory manual [supra]. For sperm movement analysis, a semen aliquot (10 μl) was placed in a Makler chamber, ten different fields per chamber were randomly examined, and at least 100 sperm for each field of the chamber were scored. Percentages of motile sperm and movement characteristics were analysed using an automated analyzer at 37° C. (CellTrack VP110, Motion Analysis Corporation, Palo Alto, Calif., USA). Sperm velocity and kinetic parameters were evaluated for only motile sperm and were expressed as mean values. Standard deviations were calculated and P values of significance were determined by the Student's t-test. The following sperm parameters were determined: curvilinear velocity (VCL) (also referred to as track speed and is the velocity (in μm/sec) of a sperm along individual tracks; straight progressive velocity (VSL) (the average velocity (in μm/sec) measured in a straight line from the beginning to the end of track); amplitude of lateral head displacement (ALH) (mean width (in μm) of sperm head oscillation); and linearity coefficient (LIN=VSL/VCL×100) (the degree (in %) of straightness of the sperm track). To analyze the effects of extracellular ATP on motility parameters of sperm from the asthenozoospermic subjects, sperm samples from the subjects were washed once by the addition of BWW medium (Biggers-Whitten-Whittingham medium; 95 mM NaCl, 4.8 mM KCl, 1.7 mM CaCl2, 1.2 mM KH2PO4, 1.2 MgSO4, 25 NaHCO3, 5.6 mM fructose, 0.25 mM sodium pyruvate, 3.7 ml/l 60% sodium lactate syrup, 10^4 IU/ml penicillin, and 10 mg/ml streptomycin) and centrifugation at 800×g for 10 minutes. After centrifugation and discarding of the supernatant, the sperm pellets were suspended in BWW medium (at a concentration of 10×10^6 sperm/ml), divided into two equivalent aliquots, and allowed to recover for 15 minutes. One aliquot was then incubated at 37° C. with ATP (2.5 mM final concentration from a 100 mM stock solution made by diluting ATP with physiological solution (0.9% NaCl in distilled water) and the second aliquot was incubated at 37° C. with same amount of physiological solution only (as a negative control). After 60 minutes incubation, sperm motility parameters were determined as described above. The effects of extracellular ATP on sperm motility parameters of sperm from subjects with asthenozoospermia after washing from seminal fluid and resuspension in BWW medium (10×10^6 sperm/ml) were examined.

Q: Which results are given for `Nc1ncnc2c1ncn2[C@@H]1O[C@H](COP(=O)(O)OP(=O)(O)OP(=O)(O)O)[C@@H](O)[C@H]1O` [ATP, adenosine 5′-triphosphate]?
A: effect on curvilinear velocity (VCL): No significant effects; effect on lateral sperm head displacement (ALH): No significant effects; progressive velocity (VSL) (37° C., washed sperm in BWW medium, 27 asthenozoospermic subjects, control 23.81±6.04, p=0.0024): 28.85±7.27 μm/sec; linearity (LIN) (37° C., washed sperm in BWW medium, control 29.59±6.25, p=0.0004): 37.7±7.9
